The values below come from patent EP0196574A2, “4,4'-Diaminodiphenyl compounds, process for their preparation and their use” (HOECHST AKTIENGESELLSCHAFT, priority 1985, dated 1986).

The structures appear in SMILES notation.

For the first series, the system named is Salmonella typhimurium (Stämme TA 98, TA 100, TA 1535, TA 1537, TA 1538). The series can be described thus: Ames mutagenicity test. The class given is cell-based. The note with it: strains TA 98, TA 100, TA 1535, TA 1537, TA 1538; ohne und in Gegenwart von S-9-Mix. An excerpt:
Die folgenden Beispiele sollen die Erfindung näher beschreiben. Der Mutagenitätstest wurde nach Ames mit Salmonella typhimurium (Stämme TA 98, TA 100, TA 1535, TA 1537, TA 1538) ohne und in Gegenwart von S-9-Mix durchgeführt (B.N. Ames et al., Mut. Res. Vol. 31, S. 347 - 364 (1975)).
A general note: The Ames test uses bacterial strains that need an amino acid and regain growth without it when mutated back.
Turning to `CC(C)c1cc(-c2ccc(N)c(C(C)C)c2)ccc1N` [Beispiel 1, 3,3-Diisopropyl-benzidin-dichlorhydrat], the “Mutagenitätstest nach Ames” value is “negativ”. On to `CC(C)COc1cc(-c2ccc(N)c(OCC(C)C)c2)ccc1N` [Beispiel 2, 3,3'-Di-isobutoxybenzidin], for which the “Mutagenitätstest nach Ames” value is on record as “negativ”. The same measure, in the same setting: next, `COCCOc1cc(-c2ccc(N)c(OCCOC)c2)ccc1N` [Beispiel 3, 3,3'-Di-(2-methoxyethoxy)-benzidin]: “negativ”.

Staying with this series, now noted: strains TA 98, TA 100, TA 1535, TA 1537, TA 1538; ohne und in Gegenwart von S-9-Mix; table of further examples.
Consider `CCCc1cc(-c2ccc(N)c(CCC)c2)ccc1N` [Beispiel 4], for which the Ames-Test result is listed as “negativ”. With `CCCCc1cc(-c2ccc(N)c(CCCC)c2)ccc1N` [Beispiel 5], the Ames-Test result is listed as “negativ”.

Consider `CC(C)Cc1cc(-c2ccc(N)c(CC(C)C)c2)ccc1N` [Beispiel 6], for which the Ames-Test entry is reported as “negativ”. `CCC(C)c1cc(-c2ccc(N)c(C(C)CC)c2)ccc1N` (stereo not shown) [Beispiel 7]: the Ames-Test result is “negativ”. Take `CCCOc1cc(-c2ccc(N)c(OCCC)c2)ccc1N` [Beispiel 8]: the Ames-Test entry was “negativ”. In the case of `CC(C)Oc1cc(-c2ccc(N)c(OC(C)C)c2)ccc1N` [Beispiel 9], the Ames-Test entry is given as “negativ”. With `CCC(C)Oc1cc(-c2ccc(N)c(OC(C)CC)c2)ccc1N` (stereo not shown) [Beispiel 10], the Ames-Test entry is given as “negativ”.
